Assay results published in PubChem BioAssay AID1419 (Emory University Molecular Libraries Screening Center, 2008).
Calls of active or inactive are those of the source. The rule behind the calls is not given here.

Assay: blockers of an Epstein-Barr virus protein-peptide interaction – biochemical, fluorescence polarization, dose response (AID 1419)
Details: cell-free protein-peptide binding, 2 h; for fold change: measured here: P channel fold over control, at 54 µM

Compound	IC50	fold change
Cc1ccc(/C=C2\Sc3ccccc3C2=O)s1	> 54 µM (inactive)	1.61
CCN(CC)c1ccc2cc(C(=O)NNC(=O)c3ccc(S(=O)(=O)N4CCCCC4)cc3)c(=O)oc2c1	3.01 µM	87.1
O=C(c1ccco1)[C@@H]1[C@@H]2C(=O)N(c3ccc(F)cc3)C(=O)[C@@H]2C2c3ccccc3C=CN21 (some centres not stated)	6.26 µM	2.53
Cn1c(-c2ccc(C=O)s2)nc2c3ccccc3c3ccccc3c21	4.07 µM	14.6
O=S(=O)(Nc1nc2ccccc2nc1-[n+]1cccc(N=C([O-])c2ccccc2Cl)c1)c1ccccc1	1.13 µM	2.79
O=C(CSc1nnc(SCc2ccccc2)s1)N/N=C/C=C/c1ccco1	> 54 µM (inactive)	1.04
Cc1c2ccccc2nc2c(F)c(NCCO)c(F)c(F)c12	< 0.42 µM	40.1
CCOc1ccc2nc(N3CCCN(C(=O)Nc4ccccc4C)CC3)c(C#N)cc2c1	8.65 µM	8.56
O=Cc1ccc2noc(-c3ccc(F)cc3)c2c1	1.47 µM	5.46
COc1ccc(C(=O)NC2(C(F)(F)F)C(=O)N(Cc3ccco3)C3=C2C(=O)CC(C)(C)C3)cc1OC (configuration not stated)	> 54 µM (inactive)	1.14
Cc1ccc(N2C(=O)C3C(C(=O)c4ccccc4)=NN(c4ccccc4)C3C2=O)cc1 (configuration not stated)	7.31 µM	8.5
O=Cc1ccc2oc3nc4n(c(=O)c3c(=O)c2c1)CCCS4	> 54 µM (inactive)	1.03
CSc1nc(SCC(=O)O)c2sc3nc(-c4ccccc4)c4c(c3c2n1)CCC4	3.47 µM	1.08
COc1ccc(S(=O)(=O)NCCc2ccc(F)cc2)cc1	> 54 µM (inactive)	0.98
CCN(CC)S(=O)(=O)c1ccc(C(=O)/C=C/c2ccc(-c3ccc([N+](=O)[O-])cc3)o2)cc1	2.97 µM	12.8
NC(=O)c1c(NC(=O)CSc2nnc(-c3ccco3)n2-c2ccccc2)sc2c1CCC2	46 µM (inactive)	0.977
O=S(=O)(Nc1nc2ccccc2nc1N1CCN(c2ccccn2)CC1)c1ccc(Cl)cc1	> 54 µM (inactive)	2.14
CCc1nn2c(=O)cc(COc3ccc(/C=C4\C(=N)N5N=C(C)SC5=NC4=O)cc3)nc2s1	16.6 µM	1.14
Cn1nc(-c2ccc(Cl)cc2)nc2c(=O)n(C)c(=O)nc1-2	7.16 µM	3.19
Cc1ccc(CNC(=O)c2ccc(-n3cccc3)cc2)cc1	> 54 µM (inactive)	1.15
COc1ccc2c3c(cccc13)C(=O)N(O)C2=O	4.72 µM	2.23
CCOc1ccc(-n2c(O)c(C=Nc3ccc(N(CC)CC)cc3)c(=O)[nH]c2=O)cc1	7.18 µM	9.37
O=C(O)CCC(=O)NCCC1=c2ccccc2=N/C1=C\c1c(O)n(Cc2ccc(F)cc2)c(=S)[nH]c1=O	4.53 µM	1.16
CSc1c(C#N)c(N)nc2sc(C(=O)c3ccc(Cl)c(Cl)c3)c(N)c12	1.74 µM	9.22
Cc1ccc(C(=O)NN2C(=O)/C(=C/c3cn(C)c4ccccc34)SC2=S)cc1	3.42 µM	6.95

Compound	IC50	fold change
CCOc1ccc2nc(N3C(=O)/C(=C/c4ccc(Cl)cc4)NC3=S)sc2c1	> 54 µM (inactive)	1.35
COc1ccccc1N1C(=O)C2C(C(=O)c3ccccc3)=NN(c3ccc(Br)cc3)C2C1=O (configuration not stated)	> 54 µM (inactive)	16.6
O=C(Nc1nnc(Cc2ccccc2)s1)c1cnccn1	> 54 µM (inactive)	1.06
CCC(C)NC(=O)c1ccc(CSCc2cccc(F)c2)o1 (configuration not stated)	> 54 µM (inactive)	1.08
CS(=O)(=O)Nc1nc2n(n1)C(c1ccccc1)C=C(c1ccc(Br)cc1)N2 (configuration not stated)	5.72 µM	2.76
COc1nc(N/N=C/c2ccc(-c3cccc([N+](=O)[O-])c3)o2)nc(N2CCOCC2)n1	24.2 µM	0.463
COc1ncnc2c1N=C1CC(C)(C)CC(N)=C1S2	2.31 µM	6.34
Cc1cc(-c2ccc(N3CCOCC3)cc2)nc2ccccc12	–	2.8
Cc1cc(C)n2c(SC/C(O)=C(\C#N)c3nc4ccccc4[nH]3)nnc2n1	20.1 µM	1.1
CCN(CC)c1ccc(/C=c2\sc3nnc(-c4ccccc4Cl)n3c2=O)cc1	2.65 µM	16.1
C=CCSc1nccc(-c2cc(Cl)sc2Cl)n1	> 54 µM (inactive)	0.953
O=C(Cn1cc2c(n1)CCCC2)NCc1ccccn1	25.9 µM	1.54
COc1cccc(/C(O)=C/c2nc3ccc(C(=O)NCCc4ccc(Cl)cc4)cc3[nH]c2=O)c1	< 0.42 µM	12.1
COc1ccc(C2=CC(c3ccco3)n3ncnc3N2)cc1 (configuration not stated)	1.31 µM	12.4
Cc1ccccc1C(=O)Nc1ccc2c(C#N)c3nc4ccccc4nc3n2c1	13.7 µM	0.993
CC1CCc2c(sc3nc(CN4CCOCC4)nc(NS(=O)(=O)c4cccc([N+](=O)[O-])c4)c23)C1 (configuration not stated)	> 54 µM (inactive)	1.13
Cn1c(=O)[nH]c2cc(Cl)cnc21	7.23 µM	2.34
Cc1cc(=O)oc(C)c1C(=O)Nc1ccc2ncccc2c1	2.96 µM	5.89
Cc1cccc2c3nc4ccccc4nc3n(CCCN3C(=O)c4ccccc4C3=O)c12	15.9 µM	3.01
COc1ccccc1N1C(C)=CC(=C(C#N)c2nc3ccccc3s2)C=C1C	9.03 µM	27.7
Nc1cc2c3c(cccc3c1)C(=O)N(CCN1CCCC1)C2=O	4.78 µM	3.92
COc1ccc(N=Nc2nc3ccc(Br)cc3n2C)cc1	> 54 µM (inactive)	1.28
Cc1cccc2cc(/C=C3\N=C(c4ccccc4)OC3=O)c(N3CCOCC3)nc12	13.2 µM	12.5
CSC1=NSC2=NC(=O)/C(=C/c3coc4ccccc4c3=O)C(=N)N12	1.78 µM	106
